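Grown in 96-well plates, cells were treated for 48 hours with each compound at five concentrations. Insufficient inhibition: endpoint recorded as highest concentration tested. Here, GI50 denotes the concentration required for 50% inhibition of growth.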 Activity calls are given as the source filed them. Rule as the data show it: active = GI50 up to about 1.1 µM and inactive = higher.

Results on 14 molecules are retold here after ChEMBL document CHEMBL1201862, “PubChem BioAssay data set” (2004).

Holding throughout (assay): inhibition of tumour cell growth, NCI panel, 48 h
Assay [1] deals with CAKI-1.
Assay [2] concerns COLO 205.
Assay [3] concerns M14.
The subject of assay [4] is Malme-3M.
The subject of assay [5] is OVCAR-4.
For assay [6], the system named is OVCAR-5.
Assay [7] concerns SF-268.
Assay [8] deals with SK-MEL-2.
Assay [9] has as its system SK-MEL-5.
Assay [10] deals with SK-OV-3.
Assay [11] relates to SN12C.
Assay [12] has as its system SW-620.
The test system of assay [13] is TK-10.
Assay [14] deals with UACC-62.

`COc1ccc(/C=N/N=C(\N)NO)cc1OC`: the GI50 in assay [1] is 29.5 µM (inactive); in [2] it was 37.5 µM (inactive); in assay [3] it was 27.9 µM (inactive); in [4], 75.2 µM (inactive); in [5], 99.1 µM (inactive); in assay [6], 63 µM (inactive). The GI50 is 20.4 µM (inactive) in [7]; 58.5 µM (inactive) in assay [8]; 15.2 µM (inactive) in assay [9]; 45.1 µM (inactive) in [10]; 45.8 µM (inactive) in assay [11]; 65.2 µM (inactive) in assay [12]. Besides, the figures for the GI50 in [13] and in assay [14] were 56.4 µM (inactive) and 23.3 µM (inactive), respectively.
For `COc1cc2c(c(OC)c1OC)-c1ccc(SC)c(=O)cc1C(CC(=O)Oc1cccc(F)c1)C2` (stereo not given), the GI50 in assay [1] is 1.35 µM (inactive); in [2], 0.153 µM (active); in [3], 0.242 µM (active); in assay [4] it was 0.267 µM (active); in [5], 2.05 µM (inactive); in [6], 4.55 µM (inactive). The GI50 is 0.653 µM (active) in [7]; 0.397 µM (active) in assay [8]; 0.411 µM (active) in [9]; 0.0385 µM (active) in assay [10]; 0.222 µM (active) in assay [11]; 0.112 µM (active) in assay [12]. For the same molecule, the figures for the GI50 in assay [13] and in assay [14] were 61.7 µM (inactive) and 0.111 µM (active), respectively.
Consider `Cc1cc(O)nc(NNC(C#N)c2ccccc2O)n1` (stereo not given), for which the GI50 in [1] is 30.8 µM (inactive); in [2], 31 µM (inactive); in assay [4], 35.7 µM (inactive); in [5], 15.5 µM (inactive); in assay [6], 58.6 µM (inactive); in assay [7] it was 13 µM (inactive). The GI50 in assay [8] was 66.8 µM (inactive); in [9], 19.9 µM (inactive); in assay [10], 39.4 µM (inactive); in [11] it was 73.6 µM (inactive); in assay [12] it was 44.6 µM (inactive); in [13] it was 61 µM (inactive). Further, the GI50 in assay [14] is 21.7 µM (inactive).
On to `COC(=O)c1ccccc1/N=C/c1ccc(N(CCC#N)S(=O)(=O)c2ccccc2)cc1`, for which the GI50 in [1], in [2], in assay [3], in assay [4], in assay [5] and in assay [6] was > 100 µM (inactive) each time. In addition, the GI50 in assay [7], in assay [8], in [9], in assay [10], in assay [11] and in assay [12] was > 100 µM (inactive) throughout. In addition, the GI50 in assay [13] and in [14] was > 100 µM (inactive) each time.
With `O=C1NC(c2ccccc2)(c2ccccc2)C(=O)N1CCCCCCN1C(=O)NC(c2ccccc2)(c2ccccc2)C1=O`, the GI50 is 48.5 µM (inactive) in assay [1]; > 100 µM (inactive) in assay [2]; 53.8 µM (inactive) in assay [3]; 22.5 µM (inactive) in assay [4]; 4.52 µM (inactive) in assay [5]; > 100 µM (inactive) in [6]. For the same molecule, the GI50 was 21.5 µM (inactive) in [7]; 15.7 µM (inactive) in assay [8]; 19.9 µM (inactive) in assay [9]; 26.9 µM (inactive) in assay [10]; 58.1 µM (inactive) in [11]; 69.3 µM (inactive) in assay [12]. In addition, the GI50 was 25 µM (inactive) in assay [13] and 57.7 µM (inactive) in [14].
Regarding `CS(=O)(=O)c1ccc(COP(N)(=O)N(CCCl)CCCl)cc1` (stereo not given), the GI50 in assay [1], in assay [2], in assay [3], in assay [4], in [5] and in assay [6] was > 100 µM (inactive) throughout. Also, the GI50 in assay [7], in assay [8], in assay [9], in assay [10], in assay [11] and in [12] was > 100 µM (inactive) each time. In addition, the GI50 in [13] and in [14] was > 100 µM (inactive) each time.
Consider `COC(=O)/C=C1/CCC2[C@@H](C(=O)CC3[C@]2(C)CCC[C@@]3(C)C(=O)OC)C1C` (stereo not given in full), for which the GI50 was 5.36 µM (inactive) in assay [1]; 5.57 µM (inactive) in assay [2]; 13.2 µM (inactive) in [3]; 16.1 µM (inactive) in assay [4]; 8.73 µM (inactive) in assay [5]; 20 µM (inactive) in assay [6]. In addition, the GI50 was 15 µM (inactive) in [7]; 16 µM (inactive) in assay [8]; 5.69 µM (inactive) in assay [9]; 30.9 µM (inactive) in [10]; 15.3 µM (inactive) in [11]; 5.86 µM (inactive) in assay [12]. For the same molecule, the values for the GI50 in assay [13] and in [14] were 20 µM (inactive) and 10.7 µM (inactive), respectively.
Regarding `COc1ccc(OC)c(CCc2ccccc2CC(=O)O)c1`, the GI50 in [1], in assay [2], in [3], in assay [4], in assay [5] and in assay [6] was > 100 µM (inactive) each time. Moreover, the GI50 in [7], in [8], in assay [9], in assay [10], in [11] and in assay [12] was > 100 µM (inactive) throughout. Also, the GI50 in assay [13] and in assay [14] was > 100 µM (inactive) in each case.
For `O=C1[C@@H]2C3SC(c4ccccc43)[C@@H]2C(=O)N1c1ccccc1`, the GI50 was > 100 µM (inactive) in [1]; > 100 µM (inactive) in [2]; > 100 µM (inactive) in assay [3]; > 100 µM (inactive) in [4]; > 100 µM (inactive) in [6]; > 95.1 µM (inactive) in assay [7]. Besides, the GI50 in assay [8] is > 100 µM (inactive); in [9], > 100 µM (inactive); in [10], > 83.4 µM (inactive); in assay [11], > 100 µM (inactive); in assay [12] it was > 100 µM (inactive); in assay [13], 97.1 µM (inactive). Further, the GI50 in assay [14] was > 100 µM (inactive).
As to `CC[C@H](C)C(=O)O[C@H]1C[C@@H](C)C=C2C=C[C@H](C)[C@H](CC[C@@H]3C[C@@H](O)CC(=O)O3)[C@H]21` [LOVASTATIN], the GI50 in assay [1] is 1.17 µM (inactive); in assay [2] it was 5.73 µM (inactive); in [3], 12.3 µM (inactive); in assay [4] it was > 30 µM (inactive); in assay [5], > 30 µM (inactive); in assay [6] it was > 30 µM (inactive). Moreover, the GI50 in assay [8] is 13.2 µM (inactive); in assay [9], 6.7 µM (inactive); in assay [10], 11.8 µM (inactive); in [11], 1.71 µM (inactive); in assay [12], 7.36 µM (inactive); in assay [13], 16.2 µM (inactive). In addition, the GI50 in [14] was 1.53 µM (inactive).
In the case of `O=C(N/C(=C\c1cccc([N+](=O)[O-])c1)c1nc2cc([N+](=O)[O-])ccc2[nH]1)c1ccccc1`, the GI50 was 30.4 µM (inactive) in assay [1]; 35.6 µM (inactive) in assay [2]; 38.9 µM (inactive) in assay [3]; 48.2 µM (inactive) in assay [4]; 19.5 µM (inactive) in assay [5]; 73.3 µM (inactive) in assay [6]. In addition, the GI50 in assay [7] was 19.7 µM (inactive); in assay [8], 24.3 µM (inactive); in assay [9] it was 20.7 µM (inactive); in assay [10] it was 71.3 µM (inactive); in assay [11], 39.4 µM (inactive); in assay [12], 35.1 µM (inactive). The results for the GI50 in assay [13] and in assay [14] were 93.3 µM (inactive) and 19.7 µM (inactive), respectively.
For the molecule `CC(=O)OC1COC(n2c(=S)n(-c3ccccc3)c(=O)c3ccccc32)C(OC(C)=O)C1OC(C)=O` (stereo not given), the GI50 was 2.94 µM (inactive) in assay [1]; 99.1 µM (inactive) in assay [2]; 21.3 µM (inactive) in [3]; > 100 µM (inactive) in [4]; 26.8 µM (inactive) in assay [5]; > 100 µM (inactive) in assay [6]. The GI50 was 89.9 µM (inactive) in [7]; 13.1 µM (inactive) in assay [8]; 98.2 µM (inactive) in [9]; > 100 µM (inactive) in assay [10]; > 100 µM (inactive) in assay [11]; 44.6 µM (inactive) in assay [12]. Also, the GI50 in assay [14] was 4.05 µM (inactive).
As for `CCC12CCCN(Cc3ccccc3)C1c1c(n(C)c3ccccc13)C(C(=O)OC)C2` (stereo not given), the GI50 is 205 µM (inactive) in assay [1]; 107 µM (inactive) in assay [2]; > 239 µM (inactive) in assay [4]; 78.2 µM (inactive) in [6]; 175 µM (inactive) in [7]; > 239 µM (inactive) in assay [8]. The GI50 in assay [9] was 43.8 µM (inactive); in assay [10] it was 236 µM (inactive); in assay [11], 84.1 µM (inactive); in assay [12], 115 µM (inactive); in assay [13], > 239 µM (inactive); in assay [14] it was > 239 µM (inactive).
For the molecule `CNS(=O)(=O)NNS(=O)(=O)c1ccc2ccccc2c1`, the GI50 in assay [1], in [2], in assay [3], in assay [4], in [5] and in assay [6] was > 100 µM (inactive) in each case. The GI50 in assay [7], in assay [8], in [9], in assay [10], in assay [11] and in [12] was > 100 µM (inactive) each time. The GI50 in [13] and in [14] was > 100 µM (inactive) throughout.
